Molecules are shown by their SMILES.

The subject of data set [1] is Mus musculus. The data set can be described thus: Antihyperglycemic effect in db/db mouse assessed as inhibition of blood glucose at 0.3 mg/kg, po after 7 days. The following applies: 168 h. It is filed as functional.
Data set [2] relates to Mus musculus. The data set can be described thus: Antihyperglycemic effect in db/db mouse assessed as inhibition of blood glucose at 0.3 mg/kg, po after 4 days. Format: functional. Conditions: 96 h.
The subject of data set [3] is Mus musculus. Put plainly: Toxicity in db/db mouse assessed as weight gain at 3 mg/kg, po after 7 days. It is filed as organism-based. Set-up: dose 3 mg/kg, route oral. The following applies: in vivo, 168 h.
Data set [4] concerns the target T1, Peroxisome proliferator-activated receptor alpha (Homo sapiens, UniProt Q07869).
T1 sequence (Q07869 whole entry): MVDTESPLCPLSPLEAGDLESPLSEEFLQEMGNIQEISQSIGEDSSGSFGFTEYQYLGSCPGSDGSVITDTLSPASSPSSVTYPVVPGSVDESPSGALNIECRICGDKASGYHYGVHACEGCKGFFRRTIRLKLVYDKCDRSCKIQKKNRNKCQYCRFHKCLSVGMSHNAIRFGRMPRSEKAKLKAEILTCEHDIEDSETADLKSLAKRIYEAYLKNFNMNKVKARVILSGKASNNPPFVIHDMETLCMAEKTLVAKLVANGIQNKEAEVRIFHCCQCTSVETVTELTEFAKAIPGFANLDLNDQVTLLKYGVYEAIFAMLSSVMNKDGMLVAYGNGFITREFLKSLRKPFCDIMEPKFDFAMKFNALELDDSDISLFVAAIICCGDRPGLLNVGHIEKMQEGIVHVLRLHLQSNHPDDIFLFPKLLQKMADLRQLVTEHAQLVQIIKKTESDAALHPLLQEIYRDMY
Put plainly: Agonist activity at human PPARalpha ligand binding domain expressed in african green monkey CV1 cells co-transfected with fused Gal4-DBD by transactivation assay. Format: cell-based, CV-1.

Data set [5] deals with T2, Peroxisome proliferator-activated receptor alpha (Homo sapiens) (UniProt Q07869).
T2 sequence (whole entry): T1 sequence (Q07869 whole entry)
Put plainly: Agonist activity at human PPARalpha ligand binding domain expressed in african green monkey CV1 cells co-transfected with fused Gal4-DBD by transactivation assay relative to gemfibrozil. Format: cell-based. The following applies: CV-1.

The test system of data set [6] is CV-1. Put plainly: Ratio of EC50 for human PPARalpha ligand binding domain expressed in african green monkey CV1 cells to EC50 for human PPARgamma ligand binding domain expressed in african green monkey CV1 cells. Format: cell-based.
The subject of data set [7] is Mus musculus. Put plainly: Antihyperglycemic effect in db/db mouse assessed as inhibition of blood glucose at 3 mg/kg, po after 7 days. It is filed as functional. The following applies: 168 h.
For data set [8], the system named is Mus musculus. The data set can be described thus: Antihyperglycemic effect in db/db mouse assessed as inhibition of blood glucose at 0.3 mg/kg, po after 5 days. The following applies: 120 h. Format: functional.
In data set [9] the test system is Mus musculus. Put plainly: Antihyperglycemic effect in db/db mouse assessed as inhibition of blood glucose at 3 mg/kg, po after 4 days. It is filed as functional. The following applies: 96 h.
For data set [10], the system named is Mus musculus. Put plainly: Toxicity in db/db mouse assessed as weight gain at 0.3 mg/kg, po after 7 days. Set-up: dose 0.3 mg/kg, route oral. Format: organism-based. Conditions: in vivo, 168 h.
Data set [11] concerns Mus musculus. Put plainly: Toxicity in db/db mouse assessed as weight gain at 0.3 mg/kg, po after 4 days. The following applies: in vivo, 96 h. Set-up: dose 0.3 mg/kg, route oral. Format: organism-based.
The subject of data set [12] is Mus musculus. The data set can be described thus: Antihyperglycemic effect in db/db mouse assessed as inhibition of blood glucose at 3 mg/kg, po after 5 days. It is filed as functional. The following applies: 120 h.
Data set [13] has as its system Mus musculus. Put plainly: Toxicity in db/db mouse assessed as weight gain at 0.3 mg/kg, po after 11 days. It is filed as organism-based. Set-up: dose 0.3 mg/kg, route oral. Conditions: in vivo, 264 h.
Data set [14] deals with Mus musculus. The data set can be described thus: Toxicity in db/db mouse assessed as weight gain at 3 mg/kg, po after 11 days. Conditions: in vivo, 264 h. Set-up: dose 3 mg/kg, route oral. Format: organism-based.
In data set [15] the test system is Mus musculus. Put plainly: Antihyperglycemic effect in db/db mouse assessed as inhibition of blood glucose at 3 mg/kg, po after 11 days. Format: functional. The following applies: 264 h.
The target in data set [16] is T3, Peroxisome proliferator-activated receptor gamma (Homo sapiens, UniProt P37231).
T3 sequence (P37231 whole entry): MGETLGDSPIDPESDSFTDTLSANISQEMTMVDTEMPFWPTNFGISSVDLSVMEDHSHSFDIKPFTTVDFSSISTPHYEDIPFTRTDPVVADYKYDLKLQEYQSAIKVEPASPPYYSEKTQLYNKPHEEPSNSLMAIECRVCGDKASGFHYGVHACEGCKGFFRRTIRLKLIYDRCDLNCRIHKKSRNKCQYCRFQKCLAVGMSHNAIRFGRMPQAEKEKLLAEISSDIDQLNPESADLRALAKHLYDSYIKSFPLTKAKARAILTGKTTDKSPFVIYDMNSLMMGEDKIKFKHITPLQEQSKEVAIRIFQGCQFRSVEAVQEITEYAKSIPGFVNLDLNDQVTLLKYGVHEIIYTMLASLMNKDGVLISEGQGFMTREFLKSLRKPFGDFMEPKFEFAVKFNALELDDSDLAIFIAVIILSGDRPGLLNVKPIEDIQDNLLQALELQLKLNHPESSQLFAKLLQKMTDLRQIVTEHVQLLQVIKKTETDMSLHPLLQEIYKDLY
Description: Agonist activity at human PPARgamma ligand binding domain expressed in african green monkey CV1 cells co-transfected with fused Gal4-DBD by transactivation assay

The subject of data set [17] is Mus musculus. The data set can be described thus: Antihyperglycemic effect in db/db mouse assessed as inhibition of blood glucose at 0.3 mg/kg, po after 11 days. Format: functional. Conditions: 264 h.
Data set [18] concerns Mus musculus. Put plainly: Toxicity in db/db mouse assessed as weight gain at 3 mg/kg, po after 4 days. It is filed as organism-based. Set-up: dose 3 mg/kg, route oral. The following applies: in vivo, 96 h.

Turning to `CCO[C@@H](Cc1cccc(/C(C)=N/OCc2ccc(Cl)cc2)c1)C(=O)O`, the inhibition in vivo at 0.3 mg/kg was found to be 60% in data set [1], 63% in data set [2], 19.3% in data set [8] and 71% in [17]. The Activity in data set [3] was 3.7 g; in data set [10] it was 3.7 g; in [11], 1.9 g; in data set [13], 6 g; in [14] it was 5.3 g; in data set [18] it was 2.5 g. In addition, the 50% effective concentration (EC50) in data set [4] came to 7.22 µM; in data set [16], 0.028 µM. For the same compound, in data set [5], the Emax came out at 386%. Further, in data set [6], the Ratio EC50 was determined as 260. Further, the inhibition in vivo at 3 mg/kg in [7] turned out to be 73%; in data set [9], 61%; in data set [12] it was 60.1%; in data set [15], 76%.

For orientation: inhibition in vivo means the relative decrease from the control value, in per cent. Usually EC50 stands for the concentration giving half of the maximal effect.

For the origin of these results see ChEMBL document CHEMBL1140178, “Design, synthesis, and biological evaluation of novel constrained meta-substituted phenyl propanoic acids as peroxisome proliferator-activated receptor alpha and gamma dual agonists” (J Med Chem, 2008).
